Test results: US20200115446A1 (NATIONAL UNIVERSITY CORPORATION HOKKAIDO UNIVERSITY, priority 2017, published 2020)
Entries after “also recorded” stand apart in the source; their conditions may differ.

Tests used:
Format in all cases: in vivo, rat
[1] = tested on: osteoclasts; test: TRACP staining of osteoclasts, growing healthy rats; details: age of 12 weeks, vs. Ct1 group
Protocol: (§1) 6-week-old growing male F344 rats were used.
(§2) (2) Experimental Groups (n=10 in Each Group) (i) Control group (hereinafter, referred to as “Ct1 group”) (ii) Anti-Siglec-15 antibody administration group (hereinafter, referred to as “Sig-15 Ab administration group”): The #32A1 antibody was used as an anti-Siglec-15 antibody. The anti-Siglec-15 antibody was subcutaneously administered once every 3 weeks at a dosage of 0.25, 1 or 4 mg/kg.
(§3) 6 weeks after the start of administration (age of 6 weeks to age of 12 weeks). After the end of the period (age of 12 weeks), the animals were euthanized, and evaluation was performed.
(§4) Decalcified tissue sample: knee joint disarticulation was performed, and samples of a coronal section tissue of the proximal tibia (proximal right knee tibia ½) and a fifth lumber vertebra coronal section tissue were prepared.
(§5) Osteoclastic cells were detected and evaluated by chemical staining with tartrate-resistant acid phosphatase (TRACP) (hereinafter, referred to as “TRACP staining”) and counter staining with methyl green. The growth cartilage part was detected and evaluated by safranine O staining (staining of acidic mucopolysaccharide).

[2] = Compression mechanical test of lumber vertebral body and distal femur metaphysis, growing healthy rats; details: age of 12 weeks, vs. Ct1 group
Protocol: as §1, §2, §3
The second, third, fourth and sixth lumber vertebral bodies and the distal metaphysis of the left femur were subjected to a compression test, and the ultimate load (maximum load endured before fracture), stiffness (resistance to deformation) and toughness (energy required before fracture) were evaluated.

[3] = Bone mass (micro-CT) and bone mineral density (DXA), growing healthy rats; details: for BMD value (DXA) / trabecular bone mass (3D-CT): vs. Ct1 group
Protocol: as §1, §2, §3
(§6) Micro-CT imaging of the femur, the tibia and the fifth lumber vertebra was performed, and the right femur major axis length was measured.
BMD measurement of the lumber vertebra (first to third lumber vertebrae) and the left distal femur end was performed by dual energy X-ray absorptiometric (DXA) method using a bone mineral density measuring apparatus (manufactured by Hitachi Aloka Medical, Ltd.).

[4] = tested on: serum osteocalcin; test: Bone formation marker (serum osteocalcin) by ELISA, growing healthy rats; details: age of 12 weeks, vs. Ct1 group
Protocol: as §1, §2, §3
(§7) Before the start of administration, and 6 weeks after administration and before euthanasia, blood was collected from the tail vein, and the values of a bone formation marker (serum osteocalcin) and a bone resorption marker (serum TRACP-5b) were measured by an ELISA method.

[5] = tested on: growth cartilage and primary spongiosa region; test: Micro-CT and histological evaluation of growth at the proximal tibia, pediatric steroid-induced osteoporosis model rats; details: GC model rats
Protocol: (§8) 6-week-old growing female LEW/Cr1Crlj rats were used.
(§9) On the other hand, a steroid-induced osteoporosis model with rats has not been established. Thus, in this Example, a model rat with Prednisolone 25 mg/pellet/60 days implanted under the skin of a 6-week-old female LEW/Cr1Crlj rat was employed as a pediatric steroid-induced osteoporosis model. In this model, it was confirmed that 2, 4 and 6 weeks after implantation of prednisolone, the femur BMD decreased, and the maximum stress of each of the femur and the lumber vertebra decreased.
(§10) (3) Experimental Group (n=10 in Each Group) (i) Sham group: Sham-operation+Vehicle (PBS) (subcutaneous administration) (ii) GC group: Prednisolone (PSL) pellet 25 mg/pellet/60 days-subcutaneous implantation (GC)+Vehicle (PBS) (subcutaneous administration) (iii) GC+Siglec-15Ab group: GC treatment was performed, and an anti-Siglec-15 antibody was subcutaneously administered once every 3 weeks at a dosage of 1 mg/kg (low dosage) or at a dosage of 10 mg/kg (high dosage). The #32A1 antibody was used as the anti-Siglec-15 antibody.
as §3
For bone labeling, tetracycline was administered 5 days before euthanasia, and calcein was administered 2 days before euthanasia (at an interval of 3 days). The animals were killed 36 hours after calcein administration. […]
(§11) Micro-CT imaging of the femur and the tibia was performed, and the right femur length was measured.
Non-decalcified hard tissue sample: a coronal section tissue of proximal left tibia ½ (length: about 1.5 cm) was used. […] The non-decalcified hard tissue sample was stained by Villanueva staining and was used for bright-field observation and fluorescent observation, and quantitative bone morphometry. […]
Regarding growth disorder, there was the possibility that administration over a period of 6 weeks would not cause a change leading to generation of a difference in femur length, and therefore the growth cartilage plate width and the longitudinal growth rate were histologically measured using the non-decalcified tissue and the decalcified tissue to evaluate growth disorder (“Modern Bone Histomorphometry”, 2014, WENET, Inc.).
In FIG. 10-1(B), the part labeled in parallel to the growth cartilage and at a distal position represents the region labeled 2 days before euthanasia (white lower arrow), and the part labeled in parallel and at a further distal position represents the region labeled 5 days before euthanasia (white upper arrowhead). The bone growth rate was evaluated on the basis of the distance between the two labeled regions.

[6] = Compression test of the distal femur end, pediatric steroid-induced osteoporosis model rats; details: GC model rats, age of 12 weeks, vs. GC group
Protocol: as §8, §9, §10
(§12) 6 weeks after the start of administration (age of 6 weeks to age of 12 weeks). After the end of the period (age of 12 weeks), the animals were euthanized, and evaluation was performed. […]

[7] = tested on: serum TRACP-5b; test: Bone resorption marker (serum TRACP-5b) by ELISA, pediatric steroid-induced osteoporosis model rats; details: after 6 weeks (age of 12 weeks)
Protocol: as §8, §9
(§13) (3) Experimental Group (n=10 in Each Group) (i) Sham group: Sham-operation+Vehicle (PBS) (subcutaneous administration) (ii) GC group: Prednisolone (PSL) pellet 25 mg/pellet/60 days-subcutaneous implantation (GC)+Vehicle (PBS) (subcutaneous administration) (iii) GC+Siglec-15Ab group: GC treatment was performed, and an anti-Siglec-15 antibody was subcutaneously administered once every 3 weeks at a dosage of 1 mg/kg (low dosage) or at a dosage of 10 mg/kg (high dosage). The #32A1 antibody was used as the anti-Siglec-15 antibody. […]
(§14) Before the start of administration, and 6 weeks after administration and before euthanasia, blood was collected from the tail vein, and the values of a bone formation marker (serum osteocalcin) and a bone resorption marker (serum TRACP-5b) in the blood were measured by an ELISA method.

[8] = tested on: serum TRACP-5b; test: Bone resorption marker (serum TRACP-5b) by ELISA, growing healthy rats; details: age of 12 weeks
Protocol: as §1, §2, §3, §7

[9] = Head trunk length and femur length, growing healthy rats; details: age of 12 weeks, vs. Ct1 group
Protocol: as §1, §2, §3
(§15) The head trunk length was measured 0, 3 and 6 weeks after administration. The body weight was measured once a week.
(§16) The femur length was measured under anesthesia every 3 weeks by micro-CT imaging.
as §6

[10] = Body weight, head trunk length and femur length, pediatric steroid-induced osteoporosis model rats; details: GC model rats
Protocol: as §8, §9, §10, §3, §15, §16, §11

[11] = tested on: growth cartilage and primary spongiosa region; test: Micro-CT and histological evaluation of growth at the proximal tibia, growing healthy rats
Protocol: as §1, §2, §3
For bone labeling, calcein was administered 7 days before and 3 days before euthanasia (at an interval of 4 days). The calcein was dissolved in a 1.4% sodium bicarbonate solution at a concentration of 10 mg/ml, and subcutaneously injected to each animal at a dosage of 10 mg/kg.
as §6
Non-decalcified hard tissue sample: a coronal section tissue of proximal left tibia ½ (length: about 1.5 cm) was used. The tissue was immersed and fixed in 70% ethanol, and then stored in a cool and dark place. The resulting non-decalcified hard tissue sample was used for Villanueva staining, bright-field observation and fluorescent observation, and quantitative bone morphometry.
as §4
With the non-decalcified hard tissue sample and the decalcified tissue sample, the growth cartilage plate width and the longitudinal growth rate were histologically measured to evaluate growth disorder (“Modern Bone Histomorphometry”, 2014, WENET, Inc.).
as §5

[12] = Bone mass (micro-CT, bone microstructure analysis) and BMD (DXA) of the distal femur, pediatric steroid-induced osteoporosis model rats; details: GC model rats, age of 12 weeks
Protocol: (3) Experimental Group (n=10 in Each Group) (i) Sham group: Sham-operation+Vehicle (PBS) (subcutaneous administration) (ii) GC group: Prednisolone (PSL) pellet 25 mg/pellet/60 days-subcutaneous implantation (GC)+Vehicle (PBS) (subcutaneous administration) (iii) GC+Siglec-15Ab group: GC treatment was performed, and an anti-Siglec-15 antibody was subcutaneously administered once every 3 weeks at a dosage of 1 mg/kg (low dosage) or at a dosage of 10 mg/kg (high dosage). […] (iv) GC+ALN group: GC treatment was performed, and ALN was subcutaneously administered twice a week at a dosage of 0.014 mg/kg (low dosage) or at a dosage of 0.140 mg/kg (high dosage).
BMD and BMC measurements of the lumber vertebra and the distal left femur were performed by a DXA method using a bone densitometer (manufactured by Hitachi Medical, Ltd.).

[13] = tested on: osteoclasts; test: TRACP staining of osteoclasts in the primary spongiosa region, pediatric steroid-induced osteoporosis model rats; details: GC model rats, proximal tibia, age of 12 weeks, vs. GC group (ALN also vs. Sham group)
Protocol: as §8, §9, §10, §12

[14] = tested on: serum osteocalcin; test: Bone formation marker (serum osteocalcin) by ELISA, pediatric steroid-induced osteoporosis model rats; details: GC model rats, age of 12 weeks, vs. GC group
Protocol: as §8, §9, §13, §14

[15] = Confirmation of the prednisolone pellet model of pediatric steroid-induced osteoporosis; details: 2, 4 and 6 weeks after implantation of Prednisolone 25 mg/pellet/60 days
Protocol: as §9
Prednisolone 25 mg/pellet/60 days is administered at a dose of 0.42 mg a day. This dose is equivalent to 3.5 mg/kg/day for a 6-week-old rat (body weight: 120 g), and equivalent to 105 mg/day for a child having a body weight of 30 kg.

[16] = distal femur metaphysis compression test
[17] = lumber vertebra compression test
[18] = lumber vertebra, age of 12 weeks
[19] = proximal tibia, age of 12 weeks, vs. Sham, GC and GC+Siglec-15 Ab groups
[20] = age of 6 weeks to 12 weeks, vs. GC group
[21] = high-dosage administration group
[22] = proximal tibia, age of 12 weeks, vs. Ct1 group

With `NCCCC(O)(P(=O)(O)O)P(=O)(O)O` [ALN, Alendronate] the “number of TRACP positive cells in the secondary spongiosa region” value ([1]; lumber vertebra) was “decreased”, the “number of TRACP positive cells in primary spongiosa region” value ([1]; proximal tibia) was “evidently decreased” and the “number of TRACP positive cells in secondary spongiosa region” value ([1]; proximal tibia) was “decreased”. For the same compound, the stiffness [2, 16] was “increased in a dosage-dependent manner”, the toughness [2, 16] was “increased in a dosage-dependent manner” and the ultimate load [2, 16] was “increased in a dosage-dependent manner”. The stiffness [2, 17] was “significantly increased”, the ultimate load [2, 17] was “significantly increased” and the “BMD value (DXA)” value ([3]; distal femur, age of 12 weeks) was “increased depending on the dosage”. The “trabecular bone mass (3D-CT)” value ([3]; distal femur, age of 12 weeks) was “increased depending on the dosage”, the “bone trabecular thickness (histological)” value ([3]; long bone, particularly high-dosage group) was “increased” and the “bone mass in the primary spongiosa (3D-CT)” value [3, 18] was “particularly increased”. The “BMD value (DXA)” value [3, 18] was “increased depending on the dosage”, the “trabecular bone mass (3D-CT)” value [3, 18] was “increased depending on the dosage” and the serum osteocalcin level [4] was “not significantly different”. The “shape of the proximal tibia in 3D-CT images” value ([5]; age of 12 weeks, vs. Sham group, ALN high dosage) was “cup-like (cupping) shape”, the growth cartilage width [5, 19] was “tended to slightly decrease, but was not statistically significantly different” and the “safranine O staining positive regions (cartilage matrix) in the bone in the primary spongiosa region” value [5, 19] was “more safranine O staining positive (red) regions”. The bone growth rate ([5]; proximal tibia, tetracycline/calcein labeling, among Sham, GC and treated groups) was “no significant difference”, the maximum stress [6] was “tended to increase, and were not significantly different” and the toughness [6] was “tended to increase, and were not significantly different”. For the same compound, the “serum TRACP-5b level” value ([7]; GC model rats, in contrast to GC group) was “significantly decreased”, the “serum TRACP-5b level” value [8] was “decreased depending on the dosage” and the femur length [9] was “decreased”. For the same compound, the head trunk length [9] was “decreased”, the “amount of change in body weight” value [10, 20] was “no significant difference” and the “amount of change in femur length” value [10, 20] was “no significant difference”. For the same compound, the “amount of change in head trunk length” value [10, 20] was “no significant difference”, the femur length [10, 21] was “tended to decrease” and the head trunk length [10, 21] was “tended to decrease”. For the same compound, the “growth cartilage plate width (3D-CT image)” value ([11]; age of 12 weeks, ALN particularly high dosage) was “decreased”, the “shape of the proximal tibia in 3D-CT images” value ([11]; age of 12 weeks, vs. Ct1 group, ALN particularly high dosage) was “cup-like shape” and the “arrangement of safranine O staining positive growth cartilage regions” value ([11]; proximal tibia, age of 12 weeks) was “disordered arrangement”. For the same compound, the “growth cartilage width (tissue sample)” value [11, 22] was “decreased; also recorded: significantly inferior”, the “safranine O staining positive regions in the bone in the primary spongiosa region” value [11, 22] was “expanded” and the bone growth rate ([11]; proximal tibia, calcein labeling 7 and 3 days before euthanasia, vs. Ct1 group) was “low bone growth rate; also recorded: significantly inferior”. The “BMD of the distal femur (DXA)” value ([12]; vs. GC group) was “increased in a dosage-dependent manner”, the “bone mass (3D-CT), region immediately above the growth plate to the proximal femur” value ([12]; distal femur metaphysis) was “increased in a dosage-dependent manner” and the “bone mass (BV/TV)” value ([12]; secondary spongiosa region of distal femur, vs. GC group, ALN high dosage) was “significantly increased”. The “number of TRACP positive cells in the primary spongiosa region” value [13] was “significantly decreased” and the serum osteocalcin level [14] was “not significantly different”.
With `C[C@]12C=CC(=O)C=C1CC[C@@H]1[C@@H]2[C@@H](O)C[C@@]2(C)[C@H]1CC[C@]2(O)C(=O)CO` [prednisolone, Prednisolone] the “maximum stress of the femur” value [15] was “decreased”, the “maximum stress of the lumber vertebra” value [15] was “decreased” and the “femur BMD” value ([15]; 6-week-old female rat) was “decreased”. For the same compound, the “increase of the level of TRACP-5b” value ([7]; GC group (prednisolone pellet + vehicle)) was 75%.
